“Also recorded” adds a separate entry of the source.
Tests used:
RAW macrophages = test: Mitosis block / morphology of treated cell cultures, RAW; format: cell-based, murine; conditions: RAW normal cells; FIG. 1: L1 0.74 mM, Colcemid 5.41 mM
Text: (§1) The commercial embryonic cell line of the human kidney 293T (Banca Biologica and Cell Factory—IRCCS AOU San Martino—IST Genova, catalog code ICLC HTL03003), that of murine macrophages J774 and RAW (ICLC ATL98011 and ATL02001), that of Glioblastoma del human brain T98G (ATCC® CRL-1690™) and that of human epithelial adenocarcinoma Caco-2 (ICL HTL97023), were provided by the National Institute for Research on Cancer c/o CBA (ICLC, Genoa). A minimal essential cell culture medium, MEM (EBSS), with 10% fetal bovine serum (FBS), 100 units per mL penicillin, […] streptomycin, 2 mM glutamine and 1% not essential amino acids was used. To reach the experimental conditions, the confluent cells were isolated using trypsin/EDTA. The cells of the different cell lines (2-3×10^4 cells per cm^2) were seeded in 35 mm cell discs and then incubated at 37° C. in 5% CO2. After 24 hours of growth in complete culture medium, the cells were cultured according to the different experimental conditions foreseen by the project.

[1] = tested on: Caco2 (colon adenocarcinoma) cells; test: Mitosis block / morphology of treated cell cultures, CaCo2; conditions: for morphological changes characteristic of block in mitosis (M phase arrest): CaCo2, 24 hours of culture, FIG. 1: L1 0.74 mM, Colcemid 5.41 mM; for antiproliferative activity (through the inhibition of mitosis): CaCo2 tumor cells
Text: as §1

macrophages (J774 cells) = tested on: macrophages (J774 cells)
Text: as §1

[2] = tested on: Caco-2 human epithelial adenocarcinoma cells
Procedure: Treated and untreated control samples of Caco-2 human epithelial adenocarcinoma cells were fixed for 2 hours in 1% paraformaldehyde (para) and 1.25% glutaraldehyde solution in 0.1 M, pH 7.4 sodium cacodylate buffer. After rinsing in the same buffer, the samples were post-fixed in 1% osmium tetroxide for 1 hour and stained in 0.25% uranyl acetate overnight at 4° C.
The cell cultures were dehydrated in increasing scale of ethanol and xylene, subsequently, to proceed with the embedding in Embed 812 resin, the samples were transferred in inclusion flat molds in an oven at 60° C. for the 24 hours necessary for the polymerization of the resin. From the resulting blocks, 1 μm thick sections were obtained and then stained with toluidine blue for preliminary analysis by light microscopy. Finally, thin sections of 60-90 nm (ultramicrotome 8800 LKB), contrasted with […] and bismuth subnitrate, were observed and photographed with a transmission electron microscope (model JEOL 1400 plus, Tokyo, Japan) operating at 80 kV.

CaCo2 cells = tested on: CaCo2 cells
Procedure: A possible cytotoxic effect (ID50) of the L1 molecule was evaluated in CaCo2 cells by viable staining with trypan blue under different experimental conditions. Cell number (FIG. 3) and viability (FIG. 4) were assessed using the LunaFL cell counter (www.logosbio.com) or by direct observation under the light microscope. Briefly, the cell samples mixed and diluted 1:1 with a 0.2% Trypan Blue solution were counted, after 1-3 minutes, in the counting chamber slide present in the analyzer of the Luna automatic system. […] To obtain an accurate measurement of cell viability, the cell count was repeated at least three times in at least three experiments under the same experimental conditions. The observation under the optical microscope (FIG. 5) was made by adding the Trypan Blue solution to the cells to be observed for a few minutes. The percentage of live cells (trypan blue negative) compared to dead ones (trypan blue positive) in each experimental culture condition was then calculated.

[3] = tested on: BAX, BCL2, OH-1, PRDX gene expression in CaCo2 cells; conditions: 24 hours, L1 0.74 mM (FIG. 6)
Procedure: (§2) Coding for a protein that may play a role in the control of cell proliferation and in tumor development and progression.
(§3) The cells, after treatment, were immediately frozen and stored at −80° C. until RNA extraction. The RNA was extracted with the NorDiag ARROW RNA Kit using the company's automated tool. Actin was used as a reference gene. Real-time reverse transcriptase PCR was performed using the Roche Light Cycler System and the SYBR Green I Amplification Kit (Roche Diagnostics). The primers used for the beta actin control gene are as follows: b-actF=5′-[…]-3′, b-actR=5′-[…]-3′, e (Gen-Bank n. NM_001101). While the following oligo nucleotides were used for the genes under consideration:
(§4) The final reaction volume of 20 μl contained: a final concentration of 3 mM MgCl2, […] of each primer and 2 μl of RNA extract. The real time reaction program includes: an initial reverse transcription at 55° C. for 10 minutes, a denaturation cycle at 95° C. for 30 seconds followed by 35 cycles at 95° for 5 seconds, 53° C. for 10 seconds and 72° C. for 12 seconds, the fluorescence reading was performed in the 72° C. phase
(§5) The relative gene expression was analyzed using the 2-AACT method [KJ Livak and TD Schmittgen, Analysis of relative gene expression data by Quantitative real-time PCR and 2-AACT method, methods, 2001, 25, 402-408]. Three distinct experimental replicates were performed for each analysis and the quantitative data were expressed as mean. The experiment was repeated if the dispersion of the values of the threshold cycles, compared to the mean, was too high. A standard deviation for each replicate equal to ±1 cut-off cycle was accepted.

[4] = tested on: BAX, BCL2, OH-1, PRDX gene expression in 293T cells; conditions: 24 hours, L1 0.74 mM (FIG. 6)
Procedure: as §2, §3, §4, §5

[5] = tested on: T98G (human glioblastoma) cells; test: Mitosis block / morphology of treated cell cultures, T98G; format: cell-based; conditions: for antiproliferative activity (through the inhibition of mitosis): T98G tumor cells; for morphological changes characteristic of block in mitosis (M phase arrest): T98G, 24 hours of culture, FIG. 1: L1 0.74 mM, Colcemid 5.41 mM
Text: as §1

[6] = tested on: embryonic kidney cells (293T cells); test: Mitosis block / morphology of treated cell cultures, 293T; format: cell-based, human; conditions: for morphological changes characteristic of block in mitosis (M phase arrest): 293T normal cells, FIG. 1: L1 0.74 mM, Colcemid 5.41 mM
Text: as §1

[7] = Caco2, treatment continued for up to 72 hours

With `O=c1cc(CNCCNCc2cc(=O)c(O)co2)occ1O` [L1, 2,2′-ethane-1,2-diylbis (iminomethanediyl)This(5-hydroxy-4H-pyran-4-one)] the “morphological changes characteristic of block in mitosis (M phase arrest)” value (from here on “morphological changes characteristic”) (RAW macrophages) was “apparently normal”, the “morphological changes characteristic” value [1] was “showed morphological changes characteristic of mitotic-blocked cells; also recorded: arrest in M phase similar to that induced by Colcemid” and the “antiproliferative activity (through the inhibition of mitosis)” value [1] was “showed antiproliferative activity”. For the same compound, the “concentration at which all the cells have a modified morphology” value ([1]; Caco2) was 2.22 mM, the “treatment time after which half of the Caco2 cells were blocked in mitosis” value ([1]; Caco2) was 4.5 h and the “treatment time after which the block of all treated cells was achieved” value ([1]; Caco2) was 24 h. For the same compound, the “minimum concentration able to induce evident morphological changes” value ([1]; Caco2, after 24 hours of treatment) was 0.069 mM, the “reduction in the number of cells versus control sample (on average)” value ([1]; Caco2, control = same cell line cultured without L1) was 4 times lower and the “cell fate on continued treatment” value [1, 7] was “begin to die from apoptosis”. For the same compound, the “reversibility of mitosis inhibition” value [1, 7] was “irreversible”, the “reversibility of mitosis inhibition” value ([1]; Caco2, treatment stopped after 24 hours, medium replaced) was “reversible” and the “effect in non-tumor cell line” value (macrophages (J774 cells)) was “no effect”. For the same compound, the “effect on cell division by ultrastructural analysis (SEM and TEM)” value ([2]; Caco2, L1 0.74 mM (FIG. 2)) was “acts specifically on the cell division (mitosis) process”, the “nuclear fragmentation (microscopy)” value ([2]; Caco-2, L1 0.74 mM (FIG. 2A)) was “occasionally, cells showing fragmentation of their nuclei have been observed” and the “cellular architecture during the interphase (TEM)” value ([2]; Caco-2, L1 0.74 mM (FIG. 2B)) was “does not appear to affect the cellular architecture of most cells”. The “viability (Trypan Blue, LunaFL)” value (CaCo2 cells; L1 0.74 mM (FIG. 4)) was “comparable to that of the respective control”, the “number of cells after repeated treatments” value (CaCo2 cells; repeated treatments with L1) was “further reduction in the number of cells” and the “number of cells compared to those not treated (LunaFL count)” value (CaCo2 cells; treated for 24 hours, L1 0.74 mM (FIG. 3)) was “clear reduction in the number of CaCo2 cells”. For the same compound, the “BAX gene expression (mRNA)” value [3] was “significantly reduces the expression”, the “BCL2 gene expression (mRNA)” value [3] was “significantly reduces the expression” and the “OH-1 gene expression (mRNA)” value [3] was “significantly reduces the expression”. The “PRDX gene expression (mRNA)” value [3] was “significantly reduces the expression”, the “BAX gene expression (mRNA)” value [4] was “increased expression” and the “BCL2 gene expression (mRNA)” value [4] was “increased expression”. For the same compound, the “OH-1 gene expression (mRNA)” value [4] was “increased expression”, the “PRDX gene expression (mRNA)” value [4] was “completely inhibiting the expression” and the “antiproliferative activity (through the inhibition of mitosis)” value [5] was “showed antiproliferative activity”. The “morphological changes characteristic” value [5] was “showed morphological changes characteristic of mitotic-blocked cells; also recorded: arrest in M phase similar to that induced by Colcemid”, the “morphological changes characteristic” value [6] was “apparently normal” and the “effect in non-tumor cell line” value ([6]; embryonic kidney cells (293 cells)) was “no effect”.

For `O=c1cc(CNCCCNCc2cc(=O)c(O)co2)occ1O` [L2, 2,2′-[propane-1,3-diylbis (iminomethanediyl)]bis(5-hydroxy-4H-pyran-4-one)], the “antiproliferative activity (through the inhibition of mitosis)” value [1] was “not those (L2, L3 and L4) showed antiproliferative activity” and the “antiproliferative activity (through the inhibition of mitosis)” value [5] was “not those (L2, L3 and L4) showed antiproliferative activity”.

`O=c1cc(CNCCN(CCNCc2cc(=O)c(O)co2)CCNCc2cc(=O)c(O)co2)occ1O` [L4, 6,6′,6″-(((nitrilotris(ethane-2,1-diyl))tris(azanediyl))tris(methylene))tri s(3-hydroxy-4H-pyran-4-one)] was tested, and the “antiproliferative activity (through the inhibition of mitosis)” value [1] was “not those (L2, L3 and L4) showed antiproliferative activity” and the “antiproliferative activity (through the inhibition of mitosis)” value [5] was “not those (L2, L3 and L4) showed antiproliferative activity”.

For `CN[C@H]1CCc2cc(OC)c(OC)c(OC)c2-c2ccc(OC)c(=O)cc21` [Colcemid, desacetylmethylcolchicine, reference compound], the “morphological changes characteristic” value (RAW macrophages) was “all cell lines respond”, the “morphological changes characteristic” value [1] was “all cell lines respond” and the “morphological changes characteristic” value ([1]; listed as colcemide) was “all cell lines studied showed the morphological changes characteristic of blocked cells in mitosis”. The “morphological changes characteristic” value [5] was “all cell lines respond”, the “morphological changes characteristic” value ([5]; listed as colcemide) was “all cell lines studied showed the morphological changes characteristic of blocked cells in mitosis” and the “morphological changes characteristic” value [6] was “all cell lines respond”.

For `O=c1cc(CNCCCCNCc2cc(=O)c(O)co2)occ1O` [L3, 2,2′-[butane-1,4-diylbis (iminomethanediyl)]bis(5-hydroxy-4H-pyran-4-one)], the “antiproliferative activity (through the inhibition of mitosis)” value [1] was “not those (L2, L3 and L4) showed antiproliferative activity” and the “antiproliferative activity (through the inhibition of mitosis)” value [5] was “not those (L2, L3 and L4) showed antiproliferative activity”.
